Patent EP0857177B1, “PROCESS FOR THE PREPARATION OF A SINGLE CHAIN FV ANTIBODY FRAGMENT” (Novartis AG, priority 1995, dated 1997)

Test system: anti-phOx-scFv (αphOx15-scFv with c-myc tag), purified monomeric, expressed in Sf9 insect cells
Assay: Surface plasmon resonance (BIAcore) measurement of the monovalent interaction between immobilised scFv and phOx
Type: binding
Details: monomeric anti-phOx-scFv amine-coupled to CM5 sensor chip (2160 RU); phOx offered as analyte phOx20.5BSA in HBS pH 7.4; BSA background RU subtracted; derived from differential RU at different phOx concentrations; error of 12.6% for the slope
Protocol: A second independent assay is employed to confirm the low affinity of the monovalent interaction between anti-phOx-scFv and phOx. Surface plasmon resonance signals (Kretschmann, E. and Raether, H. (1968) Z. Naturforsch. 23a, 2135-2136; Liedberg, et al., (1983) Sensors and Actuators 4, 299-304) are recorded with a BlAcore machine (Pharmacia Biosensor AB; Jönsson, et al., (1991) BioTechniques 11, 620-627; Chaiken, et al., (1992) Anal. Biochem. 201, 197-210). Purified monomeric anti-phOx-scFv at a concentration of 40 µg/ml in 5 mM maionic acid pH 6.0 / 0.05% [v/v] Tween-20 is coupled to a CM5 sensor chip using the Amine Coupling Kit (Pharmacia) as described earlier (Johnsson, et al., (1991) Anal. Biochem. 198, 268-277). Via amino groups, 2160 RU of the purified monomeric anti-phOx-scFv is immobilised to the sensor chip (i.e., about 2 ng/mm^2 chip surface; Stenberg, et al., (1991) J. Colloid Interface Sci. 143, 513-526).The activation time is adjusted to 7 min at a flow rate of 5 µl/min. For immobilisation 35 µl of the scFv sample are injected to the chip at the same flow rate. […]
Since a notable background binding of BSA to the modified chip is observed, it is indispensable to record the scFv binding events for both analytes phOx20.5BSA and BSA. […] KD can be derived from the differential RU measured at different phOx concentrations before dissociation is initiated.

CCO/C=C1/N=C(c2ccccc2)OC1=O [phOx]
Kd: 84.7 µM
